Source: BindingDB's records for PubMed 32771797 (Southern Medical University, 2020)

Test: Inhibition of Severe acute respiratory syndrome coronavirus 2 MPro incubated for 24 hrs by plaque assay

## O=C[C@H](C[C@@H]1CCNC1=O)NC(=O)[C@H](Cc1cccc(F)c1)NC(=O)c1cc2ccccc2[nH]1 [med.21724, Compound 62]
  EC50: 720 nM
